Experimental data published in the NIST ThermoML archive (doi:10.1021/acs.jced.8b00930).
± gives the expanded uncertainty stated by the source.

Details: Liquid, Capillary tube (Ostwald / Ubbelohde) method

CCCCCCCCCCCCCCCC [hexadecane]
Details | viscosity [mPa·s]
322.7 K, 1940 kPa | 1.885 ± 0.066
323.7 K, 970 kPa | 1.857 ± 0.063
323.7 K, 3000 kPa | 1.904 ± 0.065
323.8 K, 1980 kPa | 1.878 ± 0.066
323.8 K, 3910 kPa | 1.925 ± 0.066
372.7 K, 990 kPa | 0.909 ± 0.031
372.7 K, 1960 kPa | 0.922 ± 0.083
372.8 K, 2970 kPa | 0.929 ± 0.031
372.8 K, 3950 kPa | 0.947 ± 0.15
373.9 K, 980 kPa | 0.896 ± 0.031
373.9 K, 2000 kPa | 0.909 ± 0.083
373.9 K, 2980 kPa | 0.915 ± 0.031
373.9 K, 3900 kPa | 0.936 ± 0.17
422.9 K, 1990 kPa | 0.554 ± 0.019
422.9 K, 2970 kPa | 0.557 ± 0.019
422.9 K, 3840 kPa | 0.568 ± 0.02
471.9 K, 1000 kPa | 0.358 ± 0.013
472 K, 2010 kPa | 0.363 ± 0.012
472.1 K, 2910 kPa | 0.371 ± 0.013
472.1 K, 3870 kPa | 0.374 ± 0.015
473.7 K, 3990 kPa | 0.375 ± 0.02
521.9 K, 970 kPa | 0.245 ± 0.008
521.9 K, 1960 kPa | 0.254 ± 0.009
521.9 K, 2950 kPa | 0.26 ± 0.009
522 K, 3830 kPa | 0.267 ± 0.009
572.1 K, 2930 kPa | 0.192 ± 0.007
572.2 K, 2000 kPa | 0.187 ± 0.006
572.2 K, 3850 kPa | 0.196 ± 0.007
621.9 K, 2010 kPa | 0.131 ± 0.005
622 K, 2890 kPa | 0.137 ± 0.005
622.1 K, 3820 kPa | 0.142 ± 0.005
623.2 K, 3990 kPa | 0.143 ± 0.005
672.6 K, 3990 kPa | 0.104 ± 0.004
673.2 K, 2000 kPa | 0.091 ± 0.003
673.6 K, 3000 kPa | 0.097 ± 0.003
